The source of these data is article PMC8596843, “Platinum Cyclooctadiene Complexes with Activity against Gram‐positive Bacteria” (Chemmedchem, 2021).

In brackets after ≈: the same amount, converted by molar mass. Read-outs that look alike come from different tables or passages of the source.

In series [1] the test system is HEK-293 ATCC CRL-1573 human embryonic kidney cells. Format: cell-based. As for the experimental part:
As part of the CO‐ADD screening, all compounds that show any activity against a microbial strain are evaluated for their cytotoxicity against human embryonic kidney cells (HEK‐293) and for haemolysis against human red blood cells. None of the compounds tested for cytotoxicity (Pt1‐9 and Pd1) caused any significant cell death up to concentrations of 100 μM. […] We have also observed higher IC50 values for the methylated complexes Pt3 and Pt4 against HeLa cells in previous work.[16] […]
inhibitors as positive control.
Tamoxifen (Sigma T5648) was used
as internal control on each plate.
in a Neubauer haemocytometer. […]

The subject of series [2] is B. subtilis ATCC 6051 type strain. Description: MIC in the presence of human serum (serum reversal). Conditions: Bacillus subtilis, ATCC6051, read-out: MIC in the presence of human serum. Format: cell-based, Bacillus subtilis. An excerpt: (§1) To obtain some initial insight into the apparent disparity between in vitro and in vivo results, we repeated the MIC experiments against four selected Gram‐positive strains in the presence of 10 % or 50 % human serum (Table S3). Pt1 and Pt2 maintained some antibacterial activity against B. subtilis in the presence of 10 % serum, but a complete loss of activity was observed against MRSA and GISA (50 % serum), and VRE (10 % serum). […] Systemic administration is therefore unlikely to be a suitable administration route for this class of compounds unless an alternative formulation that can prevent serum binding (e. g. by lipid or nanoparticle encapsulation) can be found. […] Further in vivo studies should therefore focus on more suitable disease models. […]
(§2) Antibacterial minimum inhibitory concentration (MIC) assay
(§3) concentration. (in-house screening)
(§4) Bacto Laboratories 212322) at 37 °C overnight.
(§5) The resultant mid-log phase cultures were diluted
(§6) Gram-negative and Gram-positive bacteria, respectively.
(§7) final concentration range of 0.8 – 100 µM.
(§8) inhibitors as positive control. […]

In series [3] the test system is Staphylococcus epidermidis ATCC 14990, type strain. Description: Antibacterial MIC assay, Gram-positive panel. The following applies: Staphylococcus epidermidis. Type of series: cell-based. How it is done: (§9) Smiles: C1C=CCCC(=CC1)C1=CCCC=CCC1.C[Pt]C.C[Pt]C […]
(§10) ATCC strains were sourced from the American Type Culture Collection and NRS strains from NARSA (Network on Antimicrobial Resistance in Staphylococcus aureus) via BEI Resources (www.beiresources.org), with clinical MSSA and MRSA isolates from Prof Graeme Nimmo, Queensland […]
(§11) Health Central Pathology. […]
as §2
(§12) Compound Assay Plate Preparation: Compounds were dissolved in DMSO at 10mM (CO-ADD screening) or 4 mM (follow up screening) and were plated in a 2-fold dose response from 20 to 0.156 µM or 200 to 0.006 µM respectively, with a maximum of 0.5% or 1% DMSO, final in the assay […]
(§13) plated in a 2-fold dose response from 200 to 0.006 µM, with a maximum of 1 % DMSO, final in the assay concentration. (in-house screening)
(§14) For all the bacterial assays, each strain was cultured in Cation-adjusted Mueller Hinton broth (CAMHB; Bacto Laboratories 212322) at 37 °C overnight. A sample of each culture was then diluted 40-fold in fresh CAMHB and incubated at 37 °C for 1.5–3 h. The resultant mid-log phase cultures were diluted with CAMHB (CFU mL−1 measured by OD600), then added to each well of the compound-containing plates (384-well non-binding surface (NBS) plates; Corning CLS3640), giving a cell density of 5 × 10^5 CFU mL−1 and a total volume of 50 μL. Plates were covered and incubated at 37 °C for 18 h without shaking. Inhibition of bacterial growth was determined measuring absorbance at 600 nm (OD600), using media only as negative control and bacteria without inhibitors as positive control. MIC values were determined as the lowest concentration at which the growth was inhibited at ≥80%. Colistin sulfate (Sigma C4461) and vancomycin HCl (Sigma 861987) were used as internal controls on each plate for Gram-negative and Gram-positive bacteria, respectively. […]

Series [4] has as its system Enterococcus faecalis Clinical Isolate, VRE (VanB). Put plainly: Antibacterial MIC assay, Gram-positive panel. Type of series: cell-based. Conditions: Enterococcus faecalis, VRE. As for the experimental part:
as §9, §10, §11, §2, §12, §13, §14

Series [5] has as its system Enterococcus faecium ATCC 51559, MDR, VRE (VanA). Put plainly: Antibacterial MIC assay, Gram-positive panel. Format: cell-based. Conditions: Enterococcus faecium. How it is done:
as §9, §10, §11, §2, §12, §13, §14

For series [6], the system named is Staphylococcus aureus NRS 17, GISA. Put plainly: Antibacterial MIC assay, Gram-positive panel. Type of series: cell-based. The following applies: Staphylococcus aureus. As for the experimental part:
as §9, §10, §11, §2, §12, §13, §14

The test system of series [7] is Bacillus subtilis ATCC 6051, type strain. Put plainly: Antibacterial MIC assay, Gram-positive panel. Type of series: cell-based. The following applies: Bacillus subtilis. How it is done:
as §9, §10, §11, §2, §12, §13, §14

Series [8] relates to Enterococcus faecium Clinical Isolate, VRE (VanA). Put plainly: Antibacterial MIC assay, Gram-positive panel. Format: cell-based. Conditions: Enterococcus faecium, VRE. As for the experimental part: as §9, §10, §11, §2, §12, §13, §14
In series [9] the test system is Enterococcus faecalis ATCC 29212, control strain. Put plainly: Antibacterial MIC assay, Gram-positive panel. The following applies: Enterococcus faecalis. Type of series: cell-based. As for the experimental part: as §9, §10, §11, §2, §12, §13, §14
In series [10] the test system is Enterococcus faecium ATCC 35667, type strain. Description: Antibacterial MIC assay, Gram-positive panel. Type of series: cell-based. Conditions: Enterococcus faecium. How it is done: as §9, §10, §11, §2, §12, §13, §14
Series [11] has as its system Staphylococcus epidermidis NRS 60, VISE. Put plainly: Antibacterial MIC assay, Gram-positive panel. Format: cell-based. Conditions: Staphylococcus epidermidis. As for the experimental part: as §9, §10, §11, §2, §12, §13, §14
Series [12] deals with Staphylococcus aureus VRS 1, VRSA (VanA). Description: Antibacterial MIC assay, Gram-positive panel. Format: cell-based. The following applies: Staphylococcus aureus, VRSA.
Source text: (§15) Bis(dimethyl-η4)-((1Z,1'E,5Z,5'E)-(1,1'-bi(cyclooctadiene))diplatinum(II) (Pt14) Smiles: C1C=CCCC(=CC1)C1=CCCC=CCC1.C[Pt]C.C[Pt]C
(§16) InChIKey: PHIWIZAHOBWKFJ-HPCBIOCFSA-N
(§17) Link to selected data that was repeated to approve the identity of the compounds: https://dx.doi.org/10.14272/PHIWIZAHOBWKFJ-HPCBIOCFSA-N.1
as §10, §11, §2, §12, §13, §14

The subject of series [13] is Staphylococcus aureus ATCC 25923, MSSA. Put plainly: Antibacterial MIC assay, Gram-positive panel. Type of series: cell-based. Conditions: Staphylococcus aureus.
Source text: as §15, §16, §17, §10, §11, §2, §12, §13, §14

Series [14] concerns Staphylococcus aureus ATCC 43300 (MRSA). Description: microbe, parasite or virus in culture. Type of series: cell-based. Conditions: Staphylococcus aureus. How it is done:
All compounds submitted to CO‐ADD are initially screened against five bacterial strains (Staphylococcus aureus (MRSA), E. coli, Klebsiella pneumoniae, Pseudomonas aeruginosa, Acinetobacter baumannii) and two fungal strains (Candida albicans, Cryptococcus neoformans) at a single concentration (32 μg/mL or 20 μM) performed as a high‐throughput primary screening.[[11], [17a]] Any compounds that show significant growth inhibition against any of the tested strains at this step are then evaluated in a dose‐response assay against these same strains. […]
as §9, §10, §11, §2, §12, §13, §14

For series [15], the system named is E. faecium ATCC 51559 MDR, VRE. Put plainly: MIC in the presence of human serum (serum reversal). Format: cell-based, Enterococcus faecium. Conditions: Enterococcus faecium, read-out: MIC in the presence of human serum.
Source text: as §1, §2, §3, §4, §5, §6, §7, §8

The test system of series [16] is S. aureus NRS 17 GISA. The description is as above. Type of series: cell-based, Staphylococcus aureus. The following applies: Staphylococcus aureus, NRS17, read-out: MIC in the presence of human serum.
Source text: as §1, §2, §3, §4, §5, §6, §7, §8

The test system of series [17] is S. aureus ATCC 43300 MRSA. Described as above. Format: cell-based, Staphylococcus aureus. The following applies: Staphylococcus aureus, read-out: MIC in the presence of human serum.
Source text: as §1, §2, §3, §4, §5, §6, §7, §8

Turning to `CC/C(=C(\c1ccccc1)c1ccc(OCCN(C)C)cc1)c1ccccc1` [Tamoxifen, reference compound], the “HEK‐293 CC50” value in series [1] was 34.75–30.55.
Turning to `CN[C@H](CC(C)C)C(=O)N[C@H]1C(=O)N[C@@H](CC(N)=O)C(=O)N[C@H]2C(=O)N[C@H]3C(=O)N[C@H](C(=O)N[C@H](C(=O)O)c4cc(O)cc(O)c4-c4cc3ccc4O)[C@H](O)c3ccc(c(Cl)c3)Oc3cc2cc(c3O[C@@H]2O[C@H](CO)[C@@H](O)[C@H](O)[C@H]2O[C@H]2C[C@](C)(N)[C@H](O)[C@H](C)O2)Oc2ccc(cc2Cl)[C@H]1O` [Vancomycin, reference compound], the MIC is 0.5 µg/mL in series [2]; 0.69 to 1.38 µg/mL (≈ 0.476 to 0.952 µM) in series [3] (ATCC14990, Table 2 panel, n=4); 1 to 2 µg/mL (≈ 0.69 to 1.38 µM) in series [3] (ATCC14990, Table S1, vancomycin control); over 44.2 µg/mL in series [4] (Table 2 panel, n=4); 64 µg/mL (≈ 44.2 µM) in series [4] (Table S1, vancomycin control); over 44.2 µg/mL in [5] (Table 2 panel, n=2). In addition, the MIC in [5] (Table S1, vancomycin control) is over 64 µg/mL; in series [6] (NRS17, Table 2 panel, n=2), 5.52 µg/mL (≈ 3.81 µM); in [6] (NRS17, Table S1, vancomycin control) it was 8 µg/mL (≈ 5.52 µM); in [7] (ATCC6051, Table 2 panel, n=2) it was 0.35 µg/mL (≈ 0.242 µM); in series [7] (ATCC6051, Table S1, vancomycin control), 0.5 µg/mL (≈ 0.345 µM); in [8] (Table 2 panel, n=4) it was over 44.2 µg/mL. Further, the MIC in series [8] (Table S1, vancomycin control) was over 64 µg/mL; in series [9] (ATCC29212, Table 2 panel, n=4), 1.38 to 2.76 µg/mL (≈ 0.952 to 1.9 µM); in series [9] (ATCC29212, Table S1, vancomycin control) it was 2 to 4 µg/mL (≈ 1.38 to 2.76 µM); in [10] (ATCC35667, Table 2 panel, n=4), 0.35 µg/mL (≈ 0.242 µM); in series [10] (ATCC35667, Table S1, vancomycin control), 0.5 µg/mL (≈ 0.345 µM); in series [11] (NRS60, Table 2 panel, n=4), 2.76 µg/mL (≈ 1.9 µM). For the same compound, the MIC in series [11] (NRS60, Table S1, vancomycin control) is 4 µg/mL (≈ 2.76 µM); in series [12] (Table 2 panel, n=4), over 44.2 µg/mL; in [12] (Table S1, vancomycin control), over 64 µg/mL; in series [13] (Table 2 panel, n=4), 0.69 µg/mL (≈ 0.476 µM); in series [13] (Table S1, vancomycin control) it was 1 µg/mL (≈ 0.69 µM); in series [14] (Table 2 panel, n=2), 0.35 to 0.69 µg/mL (≈ 0.242 to 0.476 µM). Besides, the MIC was 0.5 to 1 µg/mL (≈ 0.345 to 0.69 µM) in series [14] (Table S1, vancomycin control); 1 µg/mL (≈ 0.69 µM) in [14] (read-out: MIC Sa, CO‐ADD screening, control antibiotic); over 64 µg/mL in series [15]; 8 µg/mL in series [16]; 0.5 to 1 µg/mL in series [17].
